Measurements: the supplement of paper PMC10307832

Assays:
Test in all cases: relative viability (nuclei count vs DMSO), 5 days (fraction); higher = more cells survive
[1] = compound: CC[C@H](Nc1ncnc2[nH]cnc12)c1nc2cccc(F)c2c(=O)n1-c1ccccc1 [Idelalisib] + COc1cccc2cc(-c3nc([C@H]4CC[C@H](C(=O)O)CC4)n4ncnc(N)c34)[nH]c12 [OSI-027] (partner 0.5 µM)
Method in brief: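 Lung cancer cell lines in 1536-well plates were dosed by pin tool the day after seeding, either with one drug alone or with a fixed anchor-drug dose plus five library-drug doses (not always all listed) in √10 steps. After 5 days, cells were fixed and their nuclei stained in one step (final 0.05% Triton X-100, 1% formaldehyde, 1 ug/ml Hoechst), then counted on 4× images. Relative viability is the nuclei count in treated wells divided by that in vehicle wells. Values are medians of duplicate plates.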

[2] = compound: Nc1nc2[nH]cc(CCc3ccc(C(=O)N[C@@H](CCC(=O)O)C(=O)O)cc3)c2c(=O)[nH]1 [Pemetrexed]
Method in brief: (§1)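 Lung cancer cell lines received five library-drug doses (not always all listed) spaced by √10, pinned on vehicle-anchored 1536-well plates after an overnight stay at 37 °C. Five days later, with no medium change, nuclei were Hoechst-stained, imaged at 4× and counted with MetaXpress. Viability is treated-well nuclei relative to vehicle-well nuclei, as a median across plates. Passing plates had control CV below 25% and at least one doubling.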

[3] = compound: CC[C@H](Nc1ncnc2[nH]cnc12)c1nc2cccc(F)c2c(=O)n1-c1ccccc1 [Idelalisib]
Method in brief: as §1

Cell Line: NCI-H441
- relative viability ([1]; first compound 0.04 µM): 0.788
- relative viability ([1]; first compound 0.1265 µM): 0.561
- relative viability ([1]; first compound 0.4 µM): 0.397
- relative viability ([1]; first compound 1.265 µM): 0.526
- relative viability ([1]; first compound 4 µM): 0.616
- relative viability ([2]; 0.002 µM): 0.917
- relative viability ([2]; 0.006325 µM): 1.01
- relative viability ([2]; 0.02 µM): 1.1
- relative viability ([2]; 0.06325 µM): 0.688
- relative viability ([2]; 0.2 µM): 0.452
- relative viability ([2]; 0.2 µM, anchor plate): 0.255
- relative viability ([3]; 0.04 µM): 1.13
- relative viability ([3]; 0.1265 µM): 0.941
- relative viability ([3]; 1.265 µM): 1.12
- relative viability ([3]; 4 µM): 1.05

Cell Line: NCI-H2342
- relative viability ([1]; first compound 0.04 µM): 0.587
- relative viability ([1]; first compound 0.1265 µM): 0.613
- relative viability ([1]; first compound 0.4 µM): 0.582
- relative viability ([1]; first compound 1.265 µM): 0.641
- relative viability ([1]; first compound 4 µM): 0.618
- relative viability ([2]; 0.002 µM): 0.804
- relative viability ([2]; 0.006325 µM): 0.95
- relative viability ([2]; 0.02 µM): 1.03
- relative viability ([2]; 0.06325 µM): 1.02
- relative viability ([2]; 0.2 µM): 1.08
- relative viability ([2]; 0.2 µM, anchor plate): 0.769
- relative viability ([3]; 0.04 µM): 1.06
- relative viability ([3]; 0.1265 µM): 1.09
- relative viability ([3]; 0.4 µM): 0.907
- relative viability ([3]; 1.265 µM): 1.03
- relative viability ([3]; 4 µM): 0.882

Cell Line: SK-MES-1
- relative viability ([1]; first compound 0.04 µM): 0.666
- relative viability ([1]; first compound 0.1265 µM): 0.611
- relative viability ([1]; first compound 0.4 µM): 0.427
- relative viability ([1]; first compound 1.265 µM): 0.218
- relative viability ([1]; first compound 4 µM): 0.467
- relative viability ([2]; 0.002 µM): 0.979
- relative viability ([2]; 0.006325 µM): 0.932
- relative viability ([2]; 0.02 µM): 1.07
- relative viability ([2]; 0.06325 µM): 0.976
- relative viability ([2]; 0.2 µM): 0.934
- relative viability ([2]; 0.2 µM, anchor plate): 0.94
- relative viability ([3]; 0.04 µM): 1.04
- relative viability ([3]; 0.1265 µM): 1.01
- relative viability ([3]; 0.4 µM): 0.885
- relative viability ([3]; 1.265 µM): 0.749
- relative viability ([3]; 4 µM): 0.745

Cell Line: NCI-H1648
- relative viability ([1]; first compound 0.04 µM): 0.272
- relative viability ([1]; first compound 0.1265 µM): 0.368
- relative viability ([1]; first compound 0.4 µM): 0.261
- relative viability ([1]; first compound 1.265 µM): 0.285
- relative viability ([1]; first compound 4 µM): 0.26
- relative viability ([2]; 0.002 µM): 0.992
- relative viability ([2]; 0.006325 µM): 0.924
- relative viability ([2]; 0.02 µM): 0.888
- relative viability ([2]; 0.06325 µM): 0.783
- relative viability ([2]; 0.2 µM): 0.931
- relative viability ([2]; 0.2 µM, anchor plate): 0.77
- relative viability ([3]; 0.04 µM): 0.963
- relative viability ([3]; 0.1265 µM): 0.918
- relative viability ([3]; 0.4 µM): 0.697
- relative viability ([3]; 1.265 µM): 0.849
- relative viability ([3]; 4 µM): 0.661

Cell Line: HCC-15
- relative viability ([1]; first compound 0.04 µM): 0.702
- relative viability ([1]; first compound 0.1265 µM): 0.754
- relative viability ([1]; first compound 0.4 µM): 0.509
- relative viability ([1]; first compound 1.265 µM): 0.869
- relative viability ([1]; first compound 4 µM): 0.668
- relative viability ([2]; 0.002 µM): 0.823
- relative viability ([2]; 0.006325 µM): 0.948
- relative viability ([2]; 0.02 µM): 1.09
- relative viability ([2]; 0.06325 µM): 0.978
- relative viability ([2]; 0.2 µM): 0.402
- relative viability ([2]; 0.2 µM, anchor plate): 0.227
- relative viability ([3]; 0.04 µM): 1.12
- relative viability ([3]; 0.1265 µM): 1.04
- relative viability ([3]; 0.4 µM): 0.914
- relative viability ([3]; 1.265 µM): 1.13
- relative viability ([3]; 4 µM): 1.02

Cell Line: ABC-1
- relative viability ([1]; first compound 0.04 µM): 0.491
- relative viability ([1]; first compound 0.1265 µM): 0.495
- relative viability ([1]; first compound 0.4 µM): 0.43
- relative viability ([1]; first compound 1.265 µM): 0.577
- relative viability ([1]; first compound 4 µM): 0.409
- relative viability ([2]; 0.002 µM): 0.911
- relative viability ([2]; 0.006325 µM): 1.02
- relative viability ([2]; 0.02 µM): 1.22
- relative viability ([2]; 0.06325 µM): 0.976
- relative viability ([2]; 0.2 µM): 0.822
- relative viability ([3]; 0.04 µM): 0.917
- relative viability ([3]; 0.1265 µM): 0.938
- relative viability ([3]; 0.4 µM): 0.955
- relative viability ([3]; 1.265 µM): 0.895
- relative viability ([3]; 4 µM): 0.961

Cell Line: EPLC-272H
- relative viability ([1]; first compound 0.04 µM): 0.304
- relative viability ([1]; first compound 0.1265 µM): 0.296
- relative viability ([1]; first compound 0.4 µM): 0.271
- relative viability ([1]; first compound 1.265 µM): 0.294
- relative viability ([1]; first compound 4 µM): 0.274
- relative viability ([2]; 0.002 µM): 0.888
- relative viability ([2]; 0.006325 µM): 0.892
- relative viability ([2]; 0.02 µM): 1.1
- relative viability ([2]; 0.06325 µM): 0.935
- relative viability ([2]; 0.2 µM): 0.798
- relative viability ([2]; 0.2 µM, anchor plate): 0.313
- relative viability ([3]; 0.04 µM): 1.07
- relative viability ([3]; 0.1265 µM): 0.9
- relative viability ([3]; 0.4 µM): 0.815
- relative viability ([3]; 1.265 µM): 0.902
- relative viability ([3]; 4 µM): 0.873

Cell Line: NCI-H2009
- relative viability ([1]; first compound 0.04 µM): 0.642
- relative viability ([1]; first compound 0.1265 µM): 0.646
- relative viability ([1]; first compound 0.4 µM): 0.515
- relative viability ([1]; first compound 1.265 µM): 0.509
- relative viability ([1]; first compound 4 µM): 0.557
- relative viability ([2]; 0.002 µM): 0.905
- relative viability ([2]; 0.006325 µM): 0.953
- relative viability ([2]; 0.02 µM): 1.14
- relative viability ([2]; 0.06325 µM): 0.997
- relative viability ([2]; 0.2 µM): 0.976
- relative viability ([2]; 0.2 µM, anchor plate): 1.03
- relative viability ([3]; 0.04 µM): 0.998
- relative viability ([3]; 0.1265 µM): 1.02
- relative viability ([3]; 0.4 µM): 0.974
- relative viability ([3]; 1.265 µM): 1.06
- relative viability ([3]; 4 µM): 1.04

Cell Line: NCI-H661
- relative viability ([1]; first compound 0.04 µM): 0.705
- relative viability ([1]; first compound 0.1265 µM): 0.838
- relative viability ([1]; first compound 0.4 µM): 0.607
- relative viability ([1]; first compound 1.265 µM): 0.661
- relative viability ([1]; first compound 4 µM): 0.706
- relative viability ([2]; 0.002 µM): 1
- relative viability ([2]; 0.006325 µM): 0.975
- relative viability ([2]; 0.02 µM): 1.02
- relative viability ([2]; 0.06325 µM): 0.977
- relative viability ([2]; 0.2 µM): 0.967
- relative viability ([2]; 0.2 µM, anchor plate): 0.923
- relative viability ([3]; 0.04 µM): 1.07
- relative viability ([3]; 0.1265 µM): 0.976
- relative viability ([3]; 0.4 µM): 0.98
- relative viability ([3]; 1.265 µM): 1.01
- relative viability ([3]; 4 µM): 0.994
